From patent publication US7070960B2, “Method of increasing product expression through solute stress” (Chiron Corporation, priority 1987, dated 2006)

Tests used:
[1] = tested on: 454A12 hybridomas; assay: Effect of sodium chloride on IgG production by hybridoma 454A12; format: cell-based, murine
Method: In another experiment, the 454A12 hybridomas were grown in shake flasks with commercially available HL-1 medium (Ventrex) supplemented with 8 mM glutamine. Osmolality of the standard (control) HL-1 medium was 300 mOsmol/kg. In the test sample, the osmolality was increased to 400 mOsmol/kg using sodium chloride. The result of solute stress in the test sample was evidenced by a 50% decrease in maximum cell density. In the stressed condition, the specific IgG production rate per cell increased throughout the culture period The increase in specific productivity was greatest during the post exponential phase period of the culture when specific productivity was more than 60% higher under the stressed condition (FIG. 3).

[2] = tested on: hybridoma D-234; assay: Effect of NH4Cl on D-234 growth and IgM production; format: cell-based, human/human/murine trioma; conditions: 10 mM NH4Cl
Method: The hybridoma D-234 was grown in HL-1 serum-free medium supplemented with 0.1% Pluronic polyol F-68, 10 mM glutamine and 10 mM NH4Cl. A control was also run without NH4Cl. One hundred ml cultures in 250 ml shake flasks were inoculated at an initial density of 1×10^5 viable cells/ml (91% viability).

[3] = tested on: D-234; assay: Effect of Na lactate on D-234 growth and IgM production; format: cell-based, human/human/murine trioma
Method: Approximately 1×10^5 cells/ml of D-234 were grown in 250 ml shake flasks (agitated at 100 rpm) in HL-1 medium containing 0.1% Pluronic polyol F-68 and 8 mM glutamine. A 1 M stock solution of sodium lactate (pH 7.4) in HL-1 was added to the medium. A preliminary screen of the effect of a broad range of sodium lactate concentrations (0–100 mM) on D-234 growth and IgM production was run. […] Cell densities at day four were reduced at all levels of lactate tested with a critical drop between 40 and 60 mM.

## [Cl-].[Na+] [sodium chloride]
[1]; 400 mOsmol/kg using sodium chloride versus 300 mOsmol/kg control
  decrease in maximum cell density: 50%
[1]; 400 mOsmol/kg using sodium chloride, post exponential phase period
  increase in specific IgG productivity: more than 60%

## Cl.N [NH4Cl, ammonium chloride]
[2]
  increase in the production of IgM: 2 fold
[2]; control 2.3×10^6/ml
  maximum total cell density: 1.1e+06 mL⁻¹

## CC(O)C(=O)[O-].[Na+] (stereo not shown) [Na Lactate, sodium lactate]
[3]; 20 mM initial lactate, Day 2, 0 mM 4.7
  Total Cell Density: 5.6 1 × 10^5/ml
[3]; 20 mM initial lactate, Day 2, 0 mM 95
  % Viability: 96%
[3]; 20 mM initial lactate, Day 4, 0 mM 10
  IgM: 20 µg/mL
[3]; 20 mM initial lactate, Day 4, 0 mM 21.0
  Total Cell Density: 15.0 1 × 10^5/ml
[3]; 20 mM initial lactate, Day 4, 0 mM 90
  % Viability: 92%
[3]; 20 mM initial lactate, Day 7, 0 mM 24
  IgM: 35 µg/mL
[3]; 40 mM initial lactate, Day 2
  % Viability: 92%
  Total Cell Density: 5.1 1 × 10^5/ml
[3]; 40 mM initial lactate, Day 4
  % Viability: 89%
  IgM: 22 µg/mL
  Total Cell Density: 12.9 1 × 10^5/ml
[3]; 40 mM initial lactate, Day 7
  IgM: 54 µg/mL
[3]; 60 mM initial lactate, Day 2
  % Viability: 93%
  Total Cell Density: 2.2 1 × 10^5/ml
[3]; 60 mM initial lactate, Day 4
  % Viability: 87%
  IgM: 19 µg/mL
  Total Cell Density: 4.1 1 × 10^5/ml
[3]; 60 mM initial lactate, Day 7, control 24
  IgM: 61 µg/mL
[3]; 80 mM added lactate
  cell density as % of the control: 12%
[3]; 80 mM initial lactate, Day 2
  % Viability: 81%
  Total Cell Density: 2.1 1 × 10^5/ml
[3]; 80 mM initial lactate, Day 4
  % Viability: 65%
  IgM: 15 µg/mL
  Total Cell Density: 2.6 1 × 10^5/ml
[3]; 80 mM initial lactate, Day 7
  IgM: 28 µg/mL
[3]; 100 mM initial lactate, Day 2
  % Viability: 72%
  Total Cell Density: 2.2 1 × 10^5/ml
[3]; 100 mM initial lactate, Day 4
  % Viability: 50%
  IgM: 11 µg/mL
  Total Cell Density: 2.0 1 × 10^5/ml
[3]; 100 mM initial lactate, Day 7
  IgM: 14 µg/mL
[3]; at 60 mM added lactate
  increase in specific (per cell) productivity: up to 14 fold
[3]; levels of added lactate above 40 mM, screen 0–100 mM
  effect on growth: greatly inhibited
